Organism: Rattus norvegicus
Experiment: DrugMatrix - Regimen: Daily Repeat
Format: toxicity, organism-based, Sprague-Dawley
Set-up: regimen Daily Repeat, gender Male, age 6-8 weeks
Settings: in vivo, po, 75 mg/kg, route oral GAVAGE, dose level High, vehicle .5 % CMC; for ABSOLUTE BASOPHIL / ABSOLUTE EOSINOPHIL / ABSOLUTE LYMPHOCYTE / ABSOLUTE MONOCYTE / ABSOLUTE SEGMENTED NEUTROPHIL / BASOPHIL / EOSINOPHIL / ERYTHROCYTE COUNT / HEMATOCRIT / HEMOGLOBIN / LEUKOCYTE COUNT / LYMPHOCYTE / MEAN CORPUSCULAR HEMOGLOBIN / MEAN CORPUSCULAR HEMOGLOBIN CONCENTRATION / MEAN CORPUSCULAR VOLUME / MONOCYTE / NEUTROPHIL / NUCLEATED RED BLOOD CELLS / PLATELET COUNT: tissue Blood; for ALANINE AMINOTRANSFERASE / ALBUMIN / ALKALINE PHOSPHATASE / ASPARTATE AMINOTRANSFERASE / BLOOD UREA NITROGEN / CARBON DIOXIDE / CHLORIDE / CHOLESTEROL / CREATININE / GLUCOSE / LACTATE DEHYDROGENASE / LIPASE / PHOSPHORUS / POTASSIUM / SODIUM / TOTAL BILIRUBIN / TOTAL PROTEIN / URIC ACID: tissue Plasma

For `COc1ccc(C2CNC(=O)C2)cc1OC1CCCC1` (centres undefined) [ROLIPRAM], the “ABSOLUTE BASOPHIL” value (120 h, time 5 day) was 0 CELLS/uL, the “ABSOLUTE EOSINOPHIL” value (120 h, time 5 day) was 142.67 CELLS/uL and the “ABSOLUTE LYMPHOCYTE” value (120 h, time 5 day) was 8076.67 CELLS/uL. For the same compound, the “ABSOLUTE MONOCYTE” value (120 h, time 5 day) was 387 CELLS/uL, the “ABSOLUTE SEGMENTED NEUTROPHIL” value (120 h, time 5 day) was 1493.67 CELLS/uL and the BASOPHIL (120 h, time 5 day) was 0%. For the same compound, the EOSINOPHIL (120 h, time 5 day) was 1.33%, the “ERYTHROCYTE COUNT” value (120 h, time 5 day) was 6.66 x10E6/uL and the HEMATOCRIT (120 h, time 5 day) was 40%. For the same compound, the HEMOGLOBIN (120 h, time 5 day) was 14.37 G/DL, the “LEUKOCYTE COUNT” value (120 h, time 5 day) was 10.1 x10E3/uL and the LYMPHOCYTE (120 h, time 5 day) was 81.33%. The “MEAN CORPUSCULAR HEMOGLOBIN” value (120 h, time 5 day) was 21.6 pg, the “MEAN CORPUSCULAR HEMOGLOBIN CONCENTRATION” value (120 h, time 5 day) was 35.93 G/DL and the “MEAN CORPUSCULAR VOLUME” value (120 h, time 5 day) was 60.07 fL. For the same compound, the MONOCYTE (120 h, time 5 day) was 3.67%, the NEUTROPHIL (120 h, time 5 day) was 13.67% and the “NUCLEATED RED BLOOD CELLS” value (120 h, time 5 day) was 0 /100WBC. For the same compound, the “PLATELET COUNT” value (120 h, time 5 day) was 1039 x10E3/uL, the “ALANINE AMINOTRANSFERASE” value (120 h, time 5 day) was 69.67 u/L and the ALBUMIN (120 h, time 5 day) was 4.5 G/DL. The “ALKALINE PHOSPHATASE” value (120 h, time 5 day) was 284.67 u/L, the “ASPARTATE AMINOTRANSFERASE” value (120 h, time 5 day) was 99.67 u/L and the “BLOOD UREA NITROGEN” value (120 h, time 5 day) was 15.33 mg/dL. The “CARBON DIOXIDE” value (120 h, time 5 day) was 34.33 mmol/L, the CHLORIDE (120 h, time 5 day) was 101.67 MEQ/L and the CHOLESTEROL (120 h, time 5 day) was 82.67 mg/dL. For the same compound, the CREATININE (120 h, time 5 day) was 0.18 mg/dL, the GLUCOSE (120 h, time 5 day) was 127 mg/dL and the “LACTATE DEHYDROGENASE” value (120 h, time 5 day) was 138.67 u/L. It also gave an LIPASE (120 h, time 5 day) of 8.67 u/L, a PHOSPHORUS (120 h, time 5 day) of 9.93 mg/dL and a POTASSIUM (120 h, time 5 day) of 6.21 MEQ/L. For the same compound, the SODIUM (120 h, time 5 day) was 149.7 MEQ/L, the “TOTAL BILIRUBIN” value (120 h, time 5 day) was 0.13 mg/dL and the “TOTAL PROTEIN” value (120 h, time 5 day) was 6.8 G/DL. For the same compound, the “URIC ACID” value (120 h, time 5 day) was 1.3 mg/dL, the “ABSOLUTE BASOPHIL” value ([…], time 14 day) was 0 CELLS/uL and the “ABSOLUTE EOSINOPHIL” value ([…], time 14 day) was 252.2 CELLS/uL. The “ABSOLUTE LYMPHOCYTE” value ([…], time 14 day) was 9667.6 CELLS/uL, the “ABSOLUTE MONOCYTE” value ([…], time 14 day) was 605.6 CELLS/uL and the “ABSOLUTE SEGMENTED NEUTROPHIL” value ([…], time 14 day) was 4994.6 CELLS/uL. The BASOPHIL ([…], time 14 day) was 0%, the EOSINOPHIL ([…], time 14 day) was 1.6% and the “ERYTHROCYTE COUNT” value ([…], time 14 day) was 6.09 x10E6/uL. For the same compound, the HEMATOCRIT ([…], time 14 day) was 35.84%, the HEMOGLOBIN ([…], time 14 day) was 13.22 G/DL and the “LEUKOCYTE COUNT” value ([…], time 14 day) was 15.52 x10E3/uL. For the same compound, the LYMPHOCYTE ([…], time 14 day) was 69.8%, the “MEAN CORPUSCULAR HEMOGLOBIN” value ([…], time 14 day) was 21.78 pg and the “MEAN CORPUSCULAR HEMOGLOBIN CONCENTRATION” value ([…], time 14 day) was 36.88 G/DL. For the same compound, the “MEAN CORPUSCULAR VOLUME” value ([…], time 14 day) was 59 fL, the MONOCYTE ([…], time 14 day) was 3.4% and the NEUTROPHIL ([…], time 14 day) was 25.2%. The “NUCLEATED RED BLOOD CELLS” value ([…], time 14 day) was 0 /100WBC, the “PLATELET COUNT” value ([…], time 14 day) was 1123.6 x10E3/uL and the “ALANINE AMINOTRANSFERASE” value ([…], time 14 day) was 56 u/L. For the same compound, the ALBUMIN ([…], time 14 day) was 3.84 G/DL, the “ALKALINE PHOSPHATASE” value ([…], time 14 day) was 286.6 u/L and the “ASPARTATE AMINOTRANSFERASE” value ([…], time 14 day) was 76.6 u/L. The “BLOOD UREA NITROGEN” value ([…], time 14 day) was 15.4 mg/dL, the “CARBON DIOXIDE” value ([…], time 14 day) was 31.8 mmol/L and the CHLORIDE ([…], time 14 day) was 104 MEQ/L. It also gave a CHOLESTEROL ([…], time 14 day) of 55.8 mg/dL, a CREATININE ([…], time 14 day) of 0.19 mg/dL and a GLUCOSE ([…], time 14 day) of 131.8 mg/dL. For the same compound, the “LACTATE DEHYDROGENASE” value ([…], time 14 day) was 80.4 u/L, the LIPASE ([…], time 14 day) was 9 u/L and the PHOSPHORUS ([…], time 14 day) was 9.08 mg/dL. For the same compound, the POTASSIUM ([…], time 14 day) was 5.55 MEQ/L, the SODIUM ([…], time 14 day) was 149.03 MEQ/L and the “TOTAL BILIRUBIN” value ([…], time 14 day) was 0.16 mg/dL. The “TOTAL PROTEIN” value ([…], time 14 day) was 5.98 G/DL and the “URIC ACID” value ([…], time 14 day) was 0.64 mg/dL.

— ChEMBL document CHEMBL3885881, “DrugMatrix”
